Publication PMC9617622 (Journal of medicinal chemistry, 2021)

What was measured:
human D2L receptor = human D2L receptor (Homo sapiens, UniProt P14416); conditions: for decrease in binding affinity at D2R compared to eticlopride: relative to eticlopride; for binding affinity at D2R (in words): result in words
D3R [1] = target: T1, D3R (Homo sapiens, UniProt P35462); conditions: for decrease in binding affinity at D3R compared to eticlopride: relative to eticlopride; for Ki difference, O-alkylated v. N-alkylated linker with the same SP: D3R, 48 v. 15 and 49 v. 13; for binding affinity at D3R (in words) / D2R/D3R preference (in words): result in words; for D2R/D3R preference (in words): D3R v. D2R binding
T1 sequence (P35462 whole entry): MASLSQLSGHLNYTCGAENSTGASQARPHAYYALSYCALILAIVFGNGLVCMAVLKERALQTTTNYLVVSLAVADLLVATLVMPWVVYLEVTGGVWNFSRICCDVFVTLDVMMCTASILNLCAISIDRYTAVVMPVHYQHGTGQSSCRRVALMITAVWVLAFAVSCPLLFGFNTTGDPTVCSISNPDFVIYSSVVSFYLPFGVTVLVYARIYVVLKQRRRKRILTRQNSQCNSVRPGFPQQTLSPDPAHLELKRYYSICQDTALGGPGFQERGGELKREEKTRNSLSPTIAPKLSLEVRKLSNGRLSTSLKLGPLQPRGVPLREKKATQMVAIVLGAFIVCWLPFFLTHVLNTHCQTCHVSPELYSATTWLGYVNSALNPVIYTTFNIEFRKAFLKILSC

D3R [2] = target: T1, D3R; conditions: result in words; compared to full agonist quinpirole and antagonist eticlopride

Chain of human D2L receptor (P14416 whole entry): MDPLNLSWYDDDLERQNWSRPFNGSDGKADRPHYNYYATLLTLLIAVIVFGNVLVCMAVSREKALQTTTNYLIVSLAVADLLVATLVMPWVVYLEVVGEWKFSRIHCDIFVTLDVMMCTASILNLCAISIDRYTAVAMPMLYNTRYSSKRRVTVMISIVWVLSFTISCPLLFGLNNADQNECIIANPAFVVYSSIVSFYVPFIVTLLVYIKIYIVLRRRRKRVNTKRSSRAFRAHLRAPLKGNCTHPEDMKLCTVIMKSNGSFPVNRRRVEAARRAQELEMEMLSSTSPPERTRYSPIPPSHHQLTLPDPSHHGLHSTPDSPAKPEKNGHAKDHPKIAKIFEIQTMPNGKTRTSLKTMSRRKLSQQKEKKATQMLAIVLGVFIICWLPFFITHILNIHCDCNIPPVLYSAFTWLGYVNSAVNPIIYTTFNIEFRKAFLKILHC

**Q.** What does the source list for `CCc1cc(Cl)c(OC)c(C(=O)NC[C@@H]2CCCN2Cc2ccccc2)c1O` [compound 7, (S)-N-((1-Benzylpyrrolidin-2-yl)methyl)-3-chloro-5-ethyl-6-hydroxy-2-methoxybenzamide]?
**A.** decrease in binding affinity at D2R compared to eticlopride (human D2L receptor): 1800 fold; decrease in binding affinity at D3R compared to eticlopride (D3R [1]): 268 fold

**Q.** `CCc1cc(Cl)c(OC)c(C(=O)NC[C@@H]2C[C@@H](OCCCCNC(=O)c3cc4ccccc4o3)CN2CC)c1O` [compound 49, N-(4-(((3R,5S)-5-((3-chloro-5-ethyl-6-hydroxy-2-methoxybenzamido)methyl)-1-ethylpyrrolidin-3-yl)oxy)butyl)benzofuran-2-carboxamide] was tested. Which “Ki difference, O-alkylated v. N-alkylated linker with the same SP” value (D3R [1]) did it give?
**A.** ~ 31 fold

**Q.** `CCc1cc(Cl)c(OC)c(C(=O)NC[C@@H]2CCCN2CCCCOc2ccc3c(c2)NC(=O)CC3)c1O` [compound 11, (S)-3-Chloro-5-ethyl-6-hydroxy-2-methoxy-N-((1-(4-((2-oxo-1,2,3,4-tetrahydroquinolin-7-yl)oxy)butyl)pyrrolidin-2-yl)methyl)benzamide] was tested. Which “preference for D3R v. D2R” value (D3R [1]; ratio of Ki D2R to Ki D3R) did it give?
**A.** 3.6 fold

**Q.** Which results are given for `CCc1cc(Cl)c(OC)c(C(=O)NC[C@@H]2C[C@@H](OCCCCO)CN2)c1O` [compound 51, 3-Chloro-5-ethyl-6-hydroxy-N-(((2S,4R)-4-(4-hydroxybutoxy)pyrrolidin-2-yl)methyl)-2-methoxybenzamide]?
**A.** binding affinity at D2R (in words) (human D2L receptor): low nanomolar range; binding affinity at D3R (in words) (D3R [1]): low nanomolar range

**Q.** `CCc1cc(Cl)c(OC)c(C(=O)NC[C@@H]2C[C@@H](OCCCCNC(=O)c3cc4ccccc4[nH]3)CN2CC)c1O` [compound 48, N-(4-(((3R,5S)-5-((3-Chloro-5-ethyl-6-hydroxy-2-methoxybenzamido)methyl)-1-ethylpyrrolidin-3-yl)oxy)butyl)-1H-indole-2-carboxamide] was tested. Which “Ki difference, O-alkylated v. N-alkylated linker with the same SP” value (D3R [1]) did it give?
**A.** ~ 56 fold

**Q.** How did the “decrease in binding affinity at D2R compared to eticlopride” value (human D2L receptor) turn out when `CCc1cc(Cl)c(OC)c(C(=O)NC[C@@H]2CCCN2)c1O.Cl` [compound 5, (S)-3-chloro-5-ethyl-6-hydroxy-2-methoxy-N-(pyrrolidin-2-ylmethyl)benzamide hydrochloride, reference compound] was run?
**A.** 19 fold

**Q.** And the “decrease in binding affinity at D3R compared to eticlopride” value (D3R [1])?
**A.** 4 fold

**Q.** What does the source list for `CCc1cc(Cl)c(OC)c(C(=O)NC[C@@H]2CCCN2Cc2ccccc2)c1OCc1ccccc1` [compound 8, (S)-2-(Benzyloxy)-N-((1-benzylpyrrolidin-2-yl)methyl)-5-chloro-3-ethyl-6-methoxybenzamide]?
**A.** binding affinity at D2R (in words) (human D2L receptor): low affinity; binding affinity at D3R (in words) (D3R [1]): low affinity

**Q.** How did the “functional efficacy at D3R (Go BRET activation)” value (D3R [2]) turn out when `CCc1cc(Cl)c(OC)c(C(=O)NC[C@@H]2CCCN2CC)c1O` [eticlopride] was run?
**A.** reference antagonist

**Q.** For `CCc1cc(Cl)c(OC)c(C(=O)NC[C@@H]2CCCN2CCc2c(C)nc3n(c2=O)CCCC3)c1O` [compound 10, (S)-3-Chloro-5-ethyl-6-hydroxy-2-methoxy-N-((1-(2-(2-methyl-4-oxo-6,7,8,9-tetrahydro-4H-pyrido[1,2-a]pyrimidin-3-yl)ethyl)pyrrolidin-2-yl)methyl)benzamide], which “D2R/D3R preference (in words)” value (D3R [1]) is on record?
**A.** equiactive at D2R and D3R

**Q.** For `CCc1cc(Cl)c(OC)c(C(=O)NC[C@@H]2CCCN2CCCCNC(=O)c2cc3ccccc3o2)c1O` [compound 13, (S)-N-(4-(2-((3-Chloro-5-ethyl-6-hydroxy-2-methoxybenzamido)methyl)pyrrolidin-1-yl)butyl) benzofuran-2-carboxamide], which “D2R/D3R preference (in words)” value (D3R [1]) is on record?
**A.** modest D3R preference was not seen

**Q.** `CCCN1CCC[C@H]1CNC(=O)c1c(O)c(CC)cc(Cl)c1OC` [compound 6, (S)-3-Chloro-5-ethyl-6-hydroxy-2-methoxy-N-((1-propylpyrrolidin-2-yl)methyl)benzamide] was tested. Which “decrease in binding affinity at D2R compared to eticlopride” value (human D2L receptor) did it give?
**A.** 6 fold

**Q.** And the “decrease in binding affinity at D3R compared to eticlopride” value (D3R [1])?
**A.** 2.6 fold

**Q.** Which results are given for `CCc1cc(Cl)c(OC)c(C(=O)NC[C@@H]2C[C@@H](OCCCCOCc3ccccc3)CN2)c1O` [50b, N-(((2S,4R)-4-(4-(Benzyloxy)butoxy)pyrrolidin-2-yl)methyl)-3-chloro-5-ethyl-6-hydroxy-2-methoxybenzamide]?
**A.** binding affinity at D2R (in words) (human D2L receptor): low nanomolar range; binding affinity at D3R (in words) (D3R [1]): low nanomolar range

**Q.** What does the source list for `CCc1cc(Cl)c(OC)c(C(=O)NC[C@@H]2C[C@@H](OCCCc3ccccc3)CN2)c1O` [50a, 3-Chloro-5-ethyl-6-hydroxy-2-methoxy-N-(((2S,4R)-4-(3-phenylpropoxy)pyrrolidin-2-yl)methyl)benzamide]?
**A.** binding affinity at D2R (in words) (human D2L receptor): low nanomolar range; binding affinity at D3R (in words) (D3R [1]): low nanomolar range
